{"source": "patent US8497237B2", "about": "(Signature Therapeutics, Inc., priority 2011, dated 2013)", "key": {"[1]": {"assay": "Oral administration of Compound KC-7 co-dosed with trypsin inhibitor Compound 109 to rats (oxycodone in plasma)", "type": "in vivo, rat", "details": "PO co-dosing, indicated by suppressed Cmax and/or delayed Tmax"}, "[2]": {"assay": "Pharmacokinetics following PO administration to dogs (oxycodone in plasma)"}, "[3]": {"assay": "Spacer leaving group cyclization rate (disappearance of compound in phosphate buffer)", "details": "for half-life (compound disappearance, cyclization): 2.18 mM initial, 50 mM pH 7.4 phosphate buffer, 20° C."}, "[4]": {"biological_target": "T1, trypsin from bovine pancreas (Bos taurus, UniProt P00760)", "T1 construct": "trypsin from bovine pancreas; purchased Sigma-Aldrich T8003; host or cells: bovine pancreas (tissue-derived)", "T1 sequence (P00760 24-246)": "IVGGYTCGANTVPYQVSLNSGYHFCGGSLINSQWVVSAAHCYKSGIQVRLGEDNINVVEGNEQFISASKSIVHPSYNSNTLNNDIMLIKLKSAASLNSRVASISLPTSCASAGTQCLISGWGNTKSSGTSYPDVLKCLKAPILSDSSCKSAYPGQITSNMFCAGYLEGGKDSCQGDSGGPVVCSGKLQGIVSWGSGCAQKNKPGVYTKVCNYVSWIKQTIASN", "assay": "In vitro trypsin-mediated prodrug cleavage", "type": "biochemical", "description": "(§1) The reactions were conducted at 37° C. for 24 h.\n(§2) Table 3 indicates the results of exposure of Compound KC-7 to trypsin. […] Table 3 also indicates the cyclization rates of the cyclizable spacer leaving group of Compound KC-23. The results are expressed as half-life of compound disappearance. Since Compound KC-23 is a diastereomer, two peaks (A and B) were analyzed; the peak area of peak B was greater than that of peak A."}, "trypsin": {"biological_target": "T2, trypsin (Bos taurus, UniProt P00760)", "T2 construct": "trypsin from bovine pancreas; purchased Sigma-Aldrich T8003; host or cells: bovine pancreas (tissue-derived)", "T2 sequence (P00760 24-246)": "T1 sequence (P00760 24-246)", "assay": "In vitro trypsin-mediated prodrug cleavage", "type": "biochemical, bovine", "details": "bovine, trypsin from bovine pancreas; 0.761 mM prodrug, Tris pH 8, 37° C.; adjusted to 4815 BAEE U/mL trypsin", "description": "as §1, §2"}}, "data": [{"compound": "N=C(N)c1ccc2cc(OC(=O)c3ccc(N=C(N)N)cc3)ccc2c1", "note": "[Compound 109, 6-carbamimidoylnaphthalen-2-yl 4-(diaminomethyleneamino) benzoate]", "values": [{"measurement": "effect of trypsin inhibitor on oxycodone release from Compound KC-7", "setting": "[1]", "result": "attenuate Compound KC-7's ability to release oxycodone in rats in a dose-dependent manner"}]}, {"compound": "COc1ccc2c3c1O[C@H]1C(OC(=O)N(C)[C@@H](CNC(=O)[C@H](CCCNC(=N)N)NC(=O)CNC(C)=O)C(=O)N(C)CC(=O)O)=CC[C@@]4(O)[C@@H](C2)N(C)CC[C@]314", "note": "[Compound KC-7, N-1-[(S)-2-(oxycodone-6-enol-carbonyl-methyl-amino)-2-carbonyl-sarcosine-ethylamine]-arginine-glycine-acetate]", "values": [{"measurement": "plasma PK profile of oxycodone release compared to OxyContin tablets and oxycodone", "setting": "[2]; dogs, PO", "result": "resembles that of OxyContin® tablets more than that of oxycodone"}, {"measurement": "release of oxycodone into dog plasma compared to Compound KC-3", "setting": "[2]; dogs, PO", "result": "significantly enhanced release of oxycodone into dog plasma (higher Cmax and AUC) as well as a more rapid Tmax"}, {"measurement": "cyclization of the spacer leaving group", "setting": "[3]; shown by the cyclization rate of Compound KC-23", "result": "can cyclize"}, {"measurement": "OC formation rate", "setting": "[4]; 0.761 mM prodrug, Tris pH 8, 37° C.", "result": "0.339 ± 0.032", "unit": "μmol/h/BAEE U"}, {"measurement": "cleavage by trypsin", "setting": "[4]; in vitro", "result": "can be cleaved by trypsin"}, {"measurement": "half-life at 0.761 mM", "setting": "trypsin", "result": "0.196 ± 0.00031", "unit": "h"}]}, {"compound": "N-1-[2-(oxycodone-6-enol-carbonyl-methyl-amino)-ethylamine]-arginine-malonic acid [Compound KC-3]", "values": [{"measurement": "AUC ± sd", "setting": "[2]; oxycodone in dog plasma, AUC 0 to 24 h, PO […] (KC-7 4.88, KC-3 4.15, oxycodone 2 mg/kg), OxyContin one 20 mg tablet", "result": "65.6 ± 22", "unit": "ng·h/mL"}, {"measurement": "OC Cmax ± sd", "setting": "[2]; oxycodone in dog plasma, PO […] (KC-7 4.88, KC-3 4.15, oxycodone 2 mg/kg), OxyContin one 20 mg tablet", "result": "10.2 ± 3.3", "unit": "ng/mL"}]}, {"compound": "[(S)-1-(oxycodone-6-enol-carbonyl-methyl-amino)-1-carbonyl-sarcosine]ethylamine [KC-23, peak A]", "values": [{"measurement": "half-life (compound disappearance, cyclization)", "setting": "[3]", "result": "7.22 ± 0.03", "unit": "h"}]}, {"compound": "[(S)-1-(oxycodone-6-enol-carbonyl-methyl-amino)-1-carbonyl-sarcosine]ethylamine [KC-23, peak B]", "values": [{"measurement": "half-life (compound disappearance, cyclization)", "setting": "[3]", "result": "5.80 ± 0.08", "unit": "h"}]}]}
